Results: ChEMBL document CHEMBL1201862, “PubChem BioAssay data set” (2004)
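Method: 48-hour compound exposure of cells in 96-well plates, five concentrations, linear interpolation of endpoints. GI50 = concentration required for 50% inhibition of growth.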 Activity calls are given as the source filed them. Rule as the data show it: active = GI50 up to about 1.1 µM and inactive = higher.

Columns and labels:
Assay in all cases: inhibition of tumour cell growth, NCI panel, 48 h
CAKI-1 = system: CAKI-1
CCRF-CEM = system: CCRF-CEM
HCT-15 = system: HCT-15
HOP-92 = system: HOP-92
HT-29 = system: HT-29
IGROV-1 = system: IGROV-1
KM12 = system: KM12
Malme-3M = system: Malme-3M
NCI-H460 = system: NCI-H460
OVCAR-3 = system: OVCAR-3
OVCAR-5 = system: OVCAR-5
SF-539 = system: SF-539
SK-MEL-5 = system: SK-MEL-5
SK-OV-3 = system: SK-OV-3
SN12C = system: SN12C
TK-10 = system: TK-10
UACC-62 = system: UACC-62
SW-620 = system: SW-620
MDA-MB-231 = system: MDA-MB-231

Row | Structure (SMILES) | GI50 (CAKI-1) | GI50 (CCRF-CEM) | GI50 (HCT-15) | GI50 (HOP-92) | GI50 (HT-29) | GI50 (IGROV-1) | GI50 (KM12) | GI50 (Malme-3M) | GI50 (NCI-H460) | GI50 (OVCAR-3) | GI50 (OVCAR-5) | GI50 (SF-539) | GI50 (SK-MEL-5) | GI50 (SK-OV-3) | GI50 (SN12C) | GI50 (TK-10) | GI50 (UACC-62) | GI50 (SW-620) | GI50 (MDA-MB-231)
1 | Cc1ccc([N+](=O)[O-])cc1NC(=O)C(=O)Cc1cc(=O)oc2cc(O)ccc12 | > 100 µM (inactive) | 39.1 µM (inactive) | > 100 µM | > 100 µM (inactive) | > 100 µM (inactive) | > 100 µM (inactive) | > 100 µM (inactive) | > 100 µM (inactive) | 83.9 µM (inactive) | > 100 µM (inactive) | > 100 µM (inactive) | > 100 µM (inactive) | > 100 µM (inactive) | > 100 µM (inactive) | > 100 µM (inactive) | > 100 µM (inactive) | > 100 µM (inactive) | – | –
2 | CC(=O)OCC1=C(CCC#N)N2C(=O)C(NC(=O)Cc3cccs3)C2[S+]([O-])C1 (configuration not stated) | > 100 µM (inactive) | > 100 µM (inactive) | > 100 µM | > 100 µM (inactive) | > 100 µM (inactive) | > 100 µM (inactive) | > 100 µM (inactive) | > 100 µM (inactive) | > 100 µM (inactive) | > 100 µM (inactive) | > 100 µM (inactive) | > 100 µM (inactive) | > 100 µM (inactive) | > 100 µM (inactive) | > 100 µM (inactive) | > 100 µM (inactive) | > 100 µM (inactive) | > 100 µM (inactive) | –
3 | Cc1nc(C(N)=S)sc1C(=O)C/C(=N/N)C(=O)Nc1cccc(Cl)c1C | > 100 µM (inactive) | > 100 µM (inactive) | > 100 µM | > 100 µM (inactive) | > 100 µM (inactive) | > 100 µM (inactive) | > 100 µM (inactive) | > 100 µM (inactive) | > 100 µM (inactive) | > 100 µM (inactive) | > 100 µM (inactive) | > 100 µM (inactive) | > 100 µM (inactive) | > 100 µM (inactive) | > 100 µM (inactive) | > 100 µM (inactive) | > 100 µM (inactive) | > 100 µM (inactive) | > 100 µM (inactive)
4 | Oc1ccc2ccccc2c1/N=N/c1cc(Cl)ccc1Cl | 34.4 µM (inactive) | 17.9 µM (inactive) | > 50 µM | 22.3 µM (inactive) | 19.3 µM (inactive) | 7.67 µM (inactive) | 17.7 µM (inactive) | 24.1 µM (inactive) | – | 19.5 µM (inactive) | 11.7 µM (inactive) | – | 38.5 µM (inactive) | 10.8 µM (inactive) | 13.3 µM (inactive) | 16 µM (inactive) | 15.9 µM (inactive) | 32.6 µM (inactive) | 11.8 µM (inactive)
5 | CSc1ccc(OCC2OC2O)cc1 (configuration not stated) | > 50.9 µM (inactive) | 21.7 µM (inactive) | 23.5 µM | > 58.2 µM (inactive) | 32.3 µM (inactive) | > 100 µM (inactive) | 36.2 µM (inactive) | 98.2 µM (inactive) | 29.4 µM (inactive) | 30.6 µM (inactive) | > 94.6 µM (inactive) | 74.8 µM (inactive) | 16 µM (inactive) | > 100 µM (inactive) | 62.2 µM (inactive) | > 50 µM (inactive) | 47.9 µM (inactive) | 18.4 µM (inactive) | –
6 | Clc1ccc(SCCSCCCCCCCCCCSCCSc2ccc(Cl)cc2)cc1 | > 100 µM (inactive) | > 100 µM (inactive) | > 100 µM | > 100 µM (inactive) | > 100 µM (inactive) | > 100 µM (inactive) | > 100 µM (inactive) | > 100 µM (inactive) | > 100 µM (inactive) | > 100 µM (inactive) | > 100 µM (inactive) | > 100 µM (inactive) | > 100 µM (inactive) | > 100 µM (inactive) | > 100 µM (inactive) | > 100 µM (inactive) | > 100 µM (inactive) | > 100 µM (inactive) | –
7 | COC(=O)/C([Se]c1c(C)cc(C)cc1C)=C(/[Se]c1c(C)cc(C)cc1C)C(=O)OC | > 100 µM (inactive) | > 100 µM (inactive) | 81.3 µM | 68.4 µM (inactive) | 91.2 µM (inactive) | > 100 µM (inactive) | > 100 µM (inactive) | > 100 µM (inactive) | 78.7 µM (inactive) | > 100 µM (inactive) | > 100 µM (inactive) | > 100 µM (inactive) | 86.3 µM (inactive) | > 100 µM (inactive) | > 100 µM (inactive) | > 100 µM (inactive) | > 100 µM (inactive) | > 100 µM (inactive) | –
8 | Cc1nc(=O)n2c(c1C(=O)Nc1ccc(Cl)cc1)NCCC2 | > 100 µM (inactive) | > 100 µM (inactive) | > 100 µM | > 100 µM (inactive) | > 100 µM (inactive) | > 100 µM (inactive) | > 100 µM (inactive) | > 100 µM (inactive) | > 100 µM (inactive) | > 100 µM (inactive) | > 100 µM (inactive) | > 100 µM (inactive) | – | > 100 µM (inactive) | > 100 µM (inactive) | > 100 µM (inactive) | > 100 µM (inactive) | > 100 µM (inactive) | –
